{"source": "ChEMBL document CHEMBL5584296", "about": "“Discovery of Novel Pyrimidine-Based Derivatives as Nav1.2 Inhibitors with Efficacy in Mouse Models of Epilepsy” (J Med Chem, 2024)", "key": {"[1]": {"molecular_target": "T1, Sodium channel protein type 2 subunit alpha (Homo sapiens, UniProt Q99250)", "test": "Inhibition of human Nav1.2 expressed in HEK293 cells assessed as test to control ratio at 10 uM measured after 5 mins by whole cell voltage clamp electrophysiological analysis", "format": "cell-based"}, "[2]": {"molecular_target": "T1, Sodium channel protein type 2 subunit alpha", "test": "Inhibition of human Nav1.2 expressed in HEK293 cells assessed as test to control ratio at 0.1 uM measured after 5 mins by whole cell voltage clamp electrophysiological analysis", "format": "cell-based"}, "[3]": {"molecular_target": "T1, Sodium channel protein type 2 subunit alpha", "test": "Inhibition of human Nav1.2 expressed in HEK293 cells at 0.1 uM measured after 5 mins by whole cell voltage clamp electrophysiological analysis relative to control", "format": "cell-based"}, "[4]": {"molecular_target": "T1, Sodium channel protein type 2 subunit alpha", "test": "Inhibition of human Nav1.2 expressed in HEK293 cells at -40 mv holding potential measured after 5 mins by whole cell voltage clamp electrophysiological analysis", "format": "cell-based"}, "[5]": {"molecular_target": "Sodium channel protein type 1 subunit alpha (Homo sapiens) (UniProt P35498)", "test": "Inhibition of human Nav1.1 expressed in HEK293 cells assessed as test to control ratio at 0.1 uM by whole cell voltage clamp electrophysiological analysis", "format": "cell-based"}, "[6]": {"molecular_target": "Sodium channel protein type 1 subunit alpha (Homo sapiens) (UniProt P35498)", "test": "Inhibition of human Nav1.1 expressed in HEK293 cells assessed as test to control ratio at 1 uM by whole cell voltage clamp electrophysiological analysis", "format": "cell-based"}, "[7]": {"molecular_target": "T2, Sodium channel protein type 5 subunit alpha (Homo sapiens, UniProt Q14524)", "T2 sequence (Q14524 whole entry)": "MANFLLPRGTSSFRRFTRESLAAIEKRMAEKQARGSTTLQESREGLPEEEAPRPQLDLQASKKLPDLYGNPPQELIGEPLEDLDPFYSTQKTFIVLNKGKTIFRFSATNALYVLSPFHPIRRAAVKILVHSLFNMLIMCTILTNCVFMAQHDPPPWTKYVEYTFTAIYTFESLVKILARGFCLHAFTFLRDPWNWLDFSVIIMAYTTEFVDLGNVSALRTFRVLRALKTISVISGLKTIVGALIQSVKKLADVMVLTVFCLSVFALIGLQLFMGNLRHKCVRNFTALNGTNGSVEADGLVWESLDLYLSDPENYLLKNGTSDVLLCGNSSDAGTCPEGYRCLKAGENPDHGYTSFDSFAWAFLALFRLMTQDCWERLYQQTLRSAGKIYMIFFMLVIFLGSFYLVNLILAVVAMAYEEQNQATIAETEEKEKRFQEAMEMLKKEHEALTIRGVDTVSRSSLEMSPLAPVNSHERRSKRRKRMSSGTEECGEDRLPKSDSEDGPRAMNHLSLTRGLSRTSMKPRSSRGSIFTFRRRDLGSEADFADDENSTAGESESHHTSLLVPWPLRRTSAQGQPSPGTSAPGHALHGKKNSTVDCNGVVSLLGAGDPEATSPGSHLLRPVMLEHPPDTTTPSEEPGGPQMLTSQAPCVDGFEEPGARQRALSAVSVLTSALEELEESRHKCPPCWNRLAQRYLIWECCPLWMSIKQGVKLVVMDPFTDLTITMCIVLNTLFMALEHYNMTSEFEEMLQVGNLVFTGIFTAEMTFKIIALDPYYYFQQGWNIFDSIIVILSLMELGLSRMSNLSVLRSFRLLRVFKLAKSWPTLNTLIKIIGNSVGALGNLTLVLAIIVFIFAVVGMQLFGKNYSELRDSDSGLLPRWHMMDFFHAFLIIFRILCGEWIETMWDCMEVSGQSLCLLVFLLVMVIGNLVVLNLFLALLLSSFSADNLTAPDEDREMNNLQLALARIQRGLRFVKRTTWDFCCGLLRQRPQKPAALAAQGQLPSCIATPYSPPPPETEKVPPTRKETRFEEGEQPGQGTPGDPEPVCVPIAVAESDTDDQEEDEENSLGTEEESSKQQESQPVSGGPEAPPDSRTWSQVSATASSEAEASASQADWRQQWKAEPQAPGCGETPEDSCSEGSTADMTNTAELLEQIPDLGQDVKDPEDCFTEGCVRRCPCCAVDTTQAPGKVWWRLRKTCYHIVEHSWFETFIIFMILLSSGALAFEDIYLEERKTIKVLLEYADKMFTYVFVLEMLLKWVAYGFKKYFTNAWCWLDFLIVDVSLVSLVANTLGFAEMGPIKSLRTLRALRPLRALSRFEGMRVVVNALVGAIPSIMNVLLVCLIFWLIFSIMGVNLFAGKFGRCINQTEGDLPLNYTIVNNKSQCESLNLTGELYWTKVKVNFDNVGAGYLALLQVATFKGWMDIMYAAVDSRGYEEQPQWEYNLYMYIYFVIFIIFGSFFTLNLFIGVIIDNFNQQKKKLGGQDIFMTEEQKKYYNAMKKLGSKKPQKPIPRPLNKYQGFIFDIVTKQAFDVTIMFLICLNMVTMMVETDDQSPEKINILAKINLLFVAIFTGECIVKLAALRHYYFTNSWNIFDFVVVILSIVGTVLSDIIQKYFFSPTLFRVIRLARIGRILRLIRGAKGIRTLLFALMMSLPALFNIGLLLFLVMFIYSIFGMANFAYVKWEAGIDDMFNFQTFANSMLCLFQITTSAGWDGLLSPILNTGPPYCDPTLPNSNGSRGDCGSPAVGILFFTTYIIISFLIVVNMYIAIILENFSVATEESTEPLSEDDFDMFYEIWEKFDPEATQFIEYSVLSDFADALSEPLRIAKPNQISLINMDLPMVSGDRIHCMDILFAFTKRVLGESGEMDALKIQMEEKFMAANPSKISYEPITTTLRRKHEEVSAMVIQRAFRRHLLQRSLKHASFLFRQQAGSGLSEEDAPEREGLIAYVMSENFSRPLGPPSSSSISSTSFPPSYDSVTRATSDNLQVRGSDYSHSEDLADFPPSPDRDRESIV", "test": "Inhibition of human Nav1.5 expressed in CHL cells assessed as test to control ratio at 0.1 uM by whole cell voltage clamp electrophysiological analysis", "format": "cell-based"}, "[8]": {"molecular_target": "T2, Sodium channel protein type 5 subunit alpha", "test": "Inhibition of human Nav1.5 expressed in CHL cells assessed as test to control ratio at 1 uM by whole cell voltage clamp electrophysiological analysis", "format": "cell-based"}, "[9]": {"molecular_target": "Sodium channel protein type 8 subunit alpha (Homo sapiens) (UniProt Q9UQD0)", "sequence (Q9UQD0 whole entry, looked up)": "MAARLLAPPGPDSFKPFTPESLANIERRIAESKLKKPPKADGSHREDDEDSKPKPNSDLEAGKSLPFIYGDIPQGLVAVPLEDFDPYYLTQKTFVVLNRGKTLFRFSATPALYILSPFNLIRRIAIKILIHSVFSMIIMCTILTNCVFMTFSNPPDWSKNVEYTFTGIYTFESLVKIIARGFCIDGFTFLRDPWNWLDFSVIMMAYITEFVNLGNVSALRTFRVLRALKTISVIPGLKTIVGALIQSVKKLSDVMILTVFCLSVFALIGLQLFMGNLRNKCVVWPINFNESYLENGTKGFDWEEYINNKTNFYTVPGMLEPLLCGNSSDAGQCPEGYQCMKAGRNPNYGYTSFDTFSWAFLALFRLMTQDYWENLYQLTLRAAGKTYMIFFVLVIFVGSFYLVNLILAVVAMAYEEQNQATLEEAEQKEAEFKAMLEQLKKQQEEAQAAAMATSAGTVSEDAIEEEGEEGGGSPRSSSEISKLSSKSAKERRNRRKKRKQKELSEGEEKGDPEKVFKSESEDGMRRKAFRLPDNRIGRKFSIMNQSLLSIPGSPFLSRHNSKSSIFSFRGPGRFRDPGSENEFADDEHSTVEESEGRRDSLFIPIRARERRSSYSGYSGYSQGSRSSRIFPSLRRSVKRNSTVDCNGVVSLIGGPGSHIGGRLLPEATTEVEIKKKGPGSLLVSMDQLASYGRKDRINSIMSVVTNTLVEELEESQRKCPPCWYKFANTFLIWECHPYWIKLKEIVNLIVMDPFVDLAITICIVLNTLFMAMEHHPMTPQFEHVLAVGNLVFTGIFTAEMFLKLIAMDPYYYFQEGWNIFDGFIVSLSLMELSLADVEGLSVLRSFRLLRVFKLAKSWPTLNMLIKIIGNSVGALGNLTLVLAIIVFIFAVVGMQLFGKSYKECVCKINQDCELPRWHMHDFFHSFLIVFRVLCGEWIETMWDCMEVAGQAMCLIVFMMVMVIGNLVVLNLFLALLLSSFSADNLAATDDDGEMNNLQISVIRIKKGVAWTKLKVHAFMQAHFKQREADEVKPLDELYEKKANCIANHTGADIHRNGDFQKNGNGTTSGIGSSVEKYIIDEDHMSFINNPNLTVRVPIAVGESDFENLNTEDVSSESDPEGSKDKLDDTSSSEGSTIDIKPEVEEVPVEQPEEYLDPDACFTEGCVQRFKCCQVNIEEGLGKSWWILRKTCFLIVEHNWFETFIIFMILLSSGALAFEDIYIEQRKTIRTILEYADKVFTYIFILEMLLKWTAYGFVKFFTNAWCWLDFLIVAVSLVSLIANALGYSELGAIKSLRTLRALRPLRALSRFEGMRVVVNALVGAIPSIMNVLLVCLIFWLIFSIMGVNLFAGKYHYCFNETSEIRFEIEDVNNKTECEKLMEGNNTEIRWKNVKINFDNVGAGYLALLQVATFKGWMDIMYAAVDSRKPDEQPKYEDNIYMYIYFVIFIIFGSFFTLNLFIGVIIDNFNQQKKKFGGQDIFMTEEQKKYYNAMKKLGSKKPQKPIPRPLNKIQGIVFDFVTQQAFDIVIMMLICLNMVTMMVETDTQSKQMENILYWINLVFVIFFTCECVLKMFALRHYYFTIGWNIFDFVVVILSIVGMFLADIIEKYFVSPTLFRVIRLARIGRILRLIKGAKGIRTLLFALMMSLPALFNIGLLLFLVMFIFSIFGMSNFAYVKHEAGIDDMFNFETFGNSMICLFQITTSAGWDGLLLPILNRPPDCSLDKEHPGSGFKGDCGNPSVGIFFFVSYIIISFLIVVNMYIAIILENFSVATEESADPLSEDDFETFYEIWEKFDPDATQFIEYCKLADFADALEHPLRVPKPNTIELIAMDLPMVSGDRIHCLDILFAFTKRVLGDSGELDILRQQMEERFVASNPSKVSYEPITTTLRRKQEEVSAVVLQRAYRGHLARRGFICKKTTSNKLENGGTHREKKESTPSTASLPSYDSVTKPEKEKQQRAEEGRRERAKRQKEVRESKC", "test": "Inhibition of human Nav1.6 expressed in CHO cells assessed as test to control ratio at 0.1 uM by whole cell voltage clamp electrophysiological analysis", "format": "cell-based"}, "[10]": {"test": "Tmax in male ICR mouse at 20 mg/kg, po measured after 24 hrs by LC-MS/MS analysis", "format": "ADME, organism-based", "details": "in vivo"}, "[11]": {"test": "Cmax in male ICR mouse at 20 mg/kg, po measured after 24 hrs by LC-MS/MS analysis", "format": "ADME, organism-based", "details": "in vivo"}, "[12]": {"test": "Oral bioavailability in male ICR mouse at 20 mg/kg measured after 24 hrs by LC-MS/MS analysis", "format": "ADME, organism-based", "details": "in vivo"}, "[13]": {"test": "Tmax in male ICR mouse at 10 mg/kg, ip measured after 24 hrs by LC-MS/MS analysis", "format": "ADME, organism-based", "details": "in vivo"}, "[14]": {"test": "AUC (0 to infinity) in male ICR mouse at 10 mg/kg, ip measured after 24 hrs by LC-MS/MS analysis", "format": "ADME, organism-based", "details": "in vivo"}, "[15]": {"test": "MRT (0 to infinity) in male ICR mouse at 10 mg/kg, ip measured after 24 hrs by LC-MS/MS analysis", "format": "ADME, organism-based", "details": "in vivo"}, "[16]": {"test": "Half-life in male ICR mouse at 10 mg/kg, ip measured after 24 hrs by LC-MS/MS analysis", "format": "ADME, organism-based", "details": "in vivo"}, "[17]": {"test": "Tmax in male ICR mouse at 1 mg/kg, iv measured after 24 hrs by LC-MS/MS analysis", "format": "ADME, organism-based", "details": "in vivo"}, "[18]": {"test": "Cmax in male ICR mouse at 1 mg/kg, iv measured after 24 hrs by LC-MS/MS analysis", "format": "ADME, organism-based", "details": "in vivo"}, "[19]": {"test": "AUC (0 to infinity) in male ICR mouse at 1 mg/kg, iv measured after 24 hrs by LC-MS/MS analysis", "format": "ADME, organism-based", "details": "in vivo"}, "[20]": {"test": "MRT (0 to infinity) in male ICR mouse at 1 mg/kg, iv measured after 24 hrs by LC-MS/MS analysis", "format": "ADME, organism-based", "details": "in vivo"}, "[21]": {"test": "Drug concentration in male ICR mouse plasma at 20 mg/kg, po measured after 0.5 hrs by LC-MS/MS analysis", "format": "ADME, organism-based"}, "[22]": {"test": "Drug concentration in male ICR mouse brain at 20 mg/kg, po measured after 0.25 hrs by LC-MS/MS analysis", "format": "ADME, organism-based", "details": "read-out: Ct"}, "[23]": {"test": "Drug concentration in male ICR mouse brain at 10 mg/kg, ip measured after 0.25 hrs by LC-MS/MS analysis", "format": "ADME, organism-based", "details": "read-out: Ct"}, "[24]": {"test": "Drug concentration in male ICR mouse brain at 10 mg/kg, ip measured after 0.5 hrs by LC-MS/MS analysis", "format": "ADME, organism-based", "details": "read-out: Ct"}, "[25]": {"test": "Drug concentration in male ICR mouse cerebrospinal fluid at 20 mg/kg, po measured after 0.25 hrs by LC-MS/MS analysis", "format": "ADME, organism-based", "details": "read-out: Ct"}, "[26]": {"test": "Drug concentration in male ICR mouse cerebrospinal fluid at 10 mg/kg, ip measured after 0.25 hrs by LC-MS/MS analysis", "format": "ADME, organism-based", "details": "read-out: Ct"}, "[27]": {"test": "Ratio of drug concentration in male ICR mouse brain to plasma at 20 mg/kg, po measured after 0.25 hrs by LC-MS/MS analysis", "format": "ADME, organism-based", "details": "read-out: BPR"}, "[28]": {"test": "Ratio of drug concentration in male ICR mouse brain to plasma at 10 mg/kg, ip measured after 0.25 hrs by LC-MS/MS analysis", "format": "ADME, organism-based", "details": "read-out: BPR"}, "[29]": {"test": "Ratio of drug concentration in male ICR mouse brain to plasma at 10 mg/kg, ip measured after 0.5 hrs by LC-MS/MS analysis", "format": "ADME, organism-based", "details": "read-out: BPR"}, "[30]": {"system": "Mus musculus", "test": "Antiepileptic activity in MES-induced seizure male ICR mouse model assessed as protection against tonic hind limb extension at 2 mg/kg, ip measured after 30 mins relative to control", "format": "functional", "details": "0.5 h"}, "[31]": {"system": "Mus musculus", "test": "Antiepileptic activity in MES-induced seizure male ICR mouse model assessed as protection against tonic hind limb extension at 5 mg/kg, ip measured after 30 mins relative to control", "format": "functional", "details": "0.5 h"}, "[32]": {"system": "Mus musculus", "test": "Antiepileptic activity in MES-induced seizure male ICR mouse model assessed as protection against tonic hind limb extension at 10 mg/kg, ip measured after 30 mins relative to control", "format": "functional", "details": "0.5 h"}, "[33]": {"system": "Mus musculus", "test": "Antiepileptic activity in 6 Hz(32 mA)-induced seizure male C57BL mouse model assessed as protection against seizure at 50 mg/kg, ip administered for 30 mins by epilepsy test", "format": "functional", "details": "0.5 h"}, "[34]": {"system": "Mus musculus", "test": "Antiepileptic activity in 6 Hz(32 mA)-induced seizure male C57BL mouse model assessed as protection against seizure at 100 mg/kg, ip administered for 30 mins by epilepsy test", "format": "functional", "details": "0.5 h"}, "[35]": {"system": "Mus musculus", "test": "Antiepileptic activity in 6 Hz(32 mA)-induced seizure male C57BL mouse model assessed as reduction in seizure time at 100 mg/kg, ip administered for 30 mins by epilepsy test (reference value: 22.7 +/- 1.6 sec)", "format": "functional", "details": "0.5 h"}, "[36]": {"test": "Neurotoxicity in male ICR mouse assessed as motor impairment at 20 mg/kg, ip administered for 30 mins by rotarod test relative to control", "format": "toxicity, organism-based", "details": "in vivo, 0.5 h"}, "[37]": {"test": "Neurotoxicity in male ICR mouse assessed as motor impairment at 30 mg/kg, ip administered for 30 mins by rotarod test relative to control", "format": "toxicity, organism-based", "details": "in vivo, 0.5 h"}, "[38]": {"molecular_target": "T1, Sodium channel protein type 2 subunit alpha", "test": "Inhibition of human Nav1.2 expressed in HEK293 cells assessed as effect on steady state activation by measuring half activation potential at 10 uM (reference value: -33 mV)", "format": "cell-based"}, "[39]": {"molecular_target": "T1, Sodium channel protein type 2 subunit alpha", "test": "Inhibition of human Nav1.2 expressed in HEK293 cells assessed as effect on steady state inactivation by measuring half activation potential at 10 uM (reference value: -65 mV)", "format": "cell-based"}}}
{"compound": "COc1cccc(-c2cc(N3CCCc4ccccc4C3)nc(N)n2)c1", "values": [{"measurement": "T/C", "setting": "[1]", "value": 0.02}, {"measurement": "T/C", "setting": "[2]", "value": 0.6}, {"measurement": "inhibition", "setting": "[3]", "value": 40, "unit": "%"}, {"measurement": "IC50", "setting": "[4]", "value": 120, "unit": "nM"}, {"measurement": "T/C", "setting": "[5]", "value": 0.65}, {"measurement": "T/C", "setting": "[6]", "value": 0.03}, {"measurement": "T/C", "setting": "[7]", "value": 0.87}, {"measurement": "T/C", "setting": "[8]", "value": 0.06}, {"measurement": "T/C", "setting": "[9]", "value": 0.53}, {"measurement": "Tmax", "setting": "[10]", "value": 15, "unit": "min"}, {"measurement": "Cmax", "setting": "[11]", "value": 63.4, "unit": "ng/mL"}, {"measurement": "bioavailability", "setting": "[12]", "value": 3, "unit": "%"}, {"measurement": "Tmax", "setting": "[13]", "value": 7.2, "unit": "min"}, {"measurement": "AUC(0-inf)", "setting": "[14]", "value": 793, "unit": "ng·h/mL"}, {"measurement": "MRT inf", "setting": "[15]", "value": 51, "unit": "min"}, {"measurement": "half-life", "setting": "[16]", "value": 56.4, "unit": "min"}, {"measurement": "Tmax", "setting": "[17]", "value": 3, "unit": "min"}, {"measurement": "Cmax", "setting": "[18]", "value": 389, "unit": "ng/mL"}, {"measurement": "AUC(0-inf)", "setting": "[19]", "value": 184, "unit": "ng·h/mL"}, {"measurement": "MRT inf", "setting": "[20]", "value": 33.6, "unit": "min"}, {"measurement": "concentration at 0.5 h", "setting": "[21]", "value": 18.3, "unit": "ng/mL"}, {"measurement": "concentration at 0.25 h", "setting": "[22]", "value": 646, "unit": "ng/g"}, {"measurement": "concentration at 0.25 h", "setting": "[23]", "value": 1900, "unit": "ng/g"}, {"measurement": "concentration at 0.5 h", "setting": "[24]", "value": 800, "unit": "ng/g"}, {"measurement": "concentration at 0.25 h", "setting": "[25]", "value": 22.1, "unit": "ng/g"}, {"measurement": "concentration at 0.25 h", "setting": "[26]", "value": 11.7, "unit": "ng/g"}, {"measurement": "Kp at 0.25 h", "setting": "[27]", "value": 3.9}, {"measurement": "Kp at 0.25 h", "setting": "[28]", "value": 3.1}, {"measurement": "Kp at 0.5 h", "setting": "[29]", "value": 3.6}, {"measurement": "Activity", "setting": "[30]", "value": 25, "unit": "%"}, {"measurement": "Activity", "setting": "[31]", "value": 80, "unit": "%"}, {"measurement": "Activity", "setting": "[32]", "value": 88, "unit": "%"}, {"measurement": "Activity", "setting": "[33]", "value": 0, "unit": "%"}, {"measurement": "Activity", "setting": "[34]", "value": 25, "unit": "%"}, {"measurement": "Time", "setting": "[35]", "value": 12.9, "unit": "s"}, {"measurement": "Activity", "setting": "[36]", "value": 13, "unit": "%"}, {"measurement": "Activity", "setting": "[37]", "value": 88, "unit": "%"}, {"measurement": "V1/2", "setting": "[38]", "value": -31, "unit": "mV"}, {"measurement": "V1/2", "setting": "[39]", "value": -77, "unit": "mV"}]}
